Measured values reported in patent publication US20080027031A1, “Retinoids and Related Compounds for the Treatment of Neuroinflammatory Conditions, Diseases and Disorders” (KineMed, Inc., priority 2006, published 2008).
Read-outs that look alike come from different tables or passages of the source.

Assays:
microglia [1] = experiment: Microglial proliferation in the EAE model of multiple sclerosis (2H2O labeling); format: in vivo, mouse; conditions: female C57BL/6 mice, MOG(35-55) immunization; isotretinoin 30 mg/kg/day i.p.; 7 days 2H2O labeling
Protocol: FIG. 3 depicts the inhibition of Microglial Proliferation in the experimental autoimmune encephalomyelitis (EAE) model of neuroinflammation. Female c57bl/6 mice were labeled with ^2H2O for 7 days and received either sham or EAE immunizations. EAE was induced by subcutaneous injection of 100 μg synthetic MOG(35-55) peptide emulsified in 0.1 ml complete Freund's adjuvant on day 0. Pertussis toxin (400 ng) was injected intravenously on days 0 and 2. Minocycline (45 mg/kg, i.p.) was dissolved in saline and injected twice a day for the first 3 days, and once a day for the rest of the study. Accutane (30 mg/kg, i.p.) was dissolved in DMSO and injected once a day for the duration of the study. Data represent mean±SD of 5 animals per group. * Indicates significant difference (p<0.0001) between sham and EAE groups treated with vehicle, # indicates significant difference (p<0.0001) between vehicle and drug treated EAE groups. […]
Analysis of cell turnover: GC/MS analysis was used to measure ^2H incorporation from ^2H2O into the deoxyribose moiety of purine deoxyribonucleotides during de novo DNA synthesis. Genomic DNA from microglia was isolated using a DNEasy tissue kit (Qiagen, Valencia, Calif.), and processed and analyzed by GC/MS. […]

EAE mice = experiment: Clinical scores for EAE symptoms in EAE induced by MOG peptide; format: in vivo, mouse
Protocol: Female C57BL/6 mice were immunized with MOG35-55 (EAE mice). All mice were labeled with 8% 2H2O for 1 week and received daily treatment with either vehicle or isotretinoin (10 mg/kg/day, ip). […] Data represent mean±SEM of 8 mice per group.
EAE was induced by subcutaneous injection of 100 μg synthetic MOG(35-55) peptide (QCB, Hopkinton, Mass.), emulsified in 0.1 ml complete Freund's adjuvant (CFA; incomplete Freund's adjuvant containing 4 mg/ml heat-killed M. tuberculosis H37Ra; both from Difco/Becton Dickinson), on day 0. Pertussis toxin (400 ng; List Biological) was injected intravenously on days 0 and 2. Sham-immunized animals were injected with CFA and PBS. Labeling with ^2H2O and treatment with isotretinoin (30 mg/kg/day) was initiated on the day of immunization, drug t.
Accordingly, the effect of isotretinoin was assessed on clinical symptoms of EAE during chronic treatment.

microglia [2] = conditions: for LPS-induced microglial proliferation: female C57BL/6 mice, LPS 1 mg/kg i.p. days 1, 3, 5, isotretinoin 40 mg/kg i.p. daily for 7 days, p<0.0001 vs LPS-treated animals
Protocol: Female c57bl/6 mice were labeled with ^2H2O for 7 days and injected with LPS (1 mg/kg, i.p.) on days 1, 3 and 5. Accutane (40 mg/kg, i.p.) was administered daily for the duration of the study. […] LPS (1 mg/kg) was given on days 1, 3, and 5 of treatment. Isotretinoin (40 mg/kg/day) and 8% ^2H2O label were given for 7 days commencing on Day 1.
Mice: All animal studies were carried out according to NIH guidelines for the care and use of laboratory animals and received prior approval by the KineMed internal animal care and use committee. 9-10 week old female C57/Bl6 mice (Taconic, Oxnard, Calif.) were housed in a climate controlled environment with a 12 hour light/dark cycle and were fed standard rodent chow and water ad libitum. For heavy water labeling, animals received a priming IP bolus of 35 ml/kg 0.9% NaCl in 99.9% ^2H2O and were maintained on 8% ^2H2O in drinking water until sacrifice.
To induce neuroinflammation, C57/Bl6 mice received 1 mg/kg E. coli LPS (L4391, Sigma Chemical, St Louis, Mo.; serotype 0111:B4; stock of 0.2 mgs/ml in PBS) IP on days 1, 3, and 5 of ^2H2O labeling and were sacrificed the morning of day 8. In order to minimize dilution of body water ^2H enrichment in animals due to the volume of injections, 5% ^2H2O solution was used as the vehicle for LPS. Isotretinoin (Sigma) was dissolved in DMSO and administered IP daily at 40 mg/kg, drug treatment was maintained throughout the labeling period.
Isolation and characterization of microglia: Anesthetized mice were transcardially perfused with ice-cold PBS (30 ml). Brains (without olfactory bulbs) were removed and kept in ice-cold PBS until processing. Tissue was passed once through a 1 mm mesh, and agitated in digestion buffer (12.5 ml of 150 mM NaCl, 5 mM KCl, 10 mM NaHCO3, 0.5 mM EDTA, 15 mM HEPES, 5 mM D-glucose, containing 0.5 mg/ml DNAse I [Roche] and 2.5 mg/ml trypsin [Sigma]) in a baffle flask for 25 minutes at 37° C. Trypsin was inactivated by the addition of 6.25 ml of media (1:1 Hams F10:DMEM, 10% FBS, 100,000 units/l penicillin G, 50 mg/l streptomycin sulfate, 2 mM L-glutamine). […]

## CC1=C(/C=C/C(C)=C/C=C/C(C)=C\C(=O)O)C(C)(C)CCC1 [isotretinoin, 13-cis-retinoic acid]
Microglia [1]
  microglial proliferation in the EAE model: dramatically inhibited
EAE mice; MOG35-55 immunized mice, isotretinoin 10 mg/kg/day ip from the day before immunization, untreated onset 14 days PI
  delay of onset of clinical symptoms of EAE: 1 week
EAE mice; between day 18 and day 25 PI vs vehicle-treated EAE mice, p<0.05, isotretinoin 10 mg/kg/day ip
  severity of clinical symptoms (clinical score) of EAE: reduced the severity of clinical symptoms significantly
Microglia [2]
  LPS-induced microglial proliferation: dramatically inhibited
Microglia [2]; listed as isotrentinoin
  LPS-induced microglial proliferation: Inhibits Microglial Proliferation
Microglia [2]; overview statement, compared with clinically established inhibitors of neuroinflammation, including minocycline and glucocorticoids
  suppression of proliferation of brain microglial cells under conditions of microglial stimulation: as potent
